Source: patent US20120083471A1, “Novel Compounds, Pharmaceutical Compositions Containing Same, Methods of Use for Same, and Methods for Preparing Same” (priority 2008, published 2012)
“Also recorded” adds a separate entry of the source.

What was measured:
Assay type in all cases: in vivo, mouse
DIO mice = assay: Chronic 16 d FSG67 treatment of DIO mice with indirect calorimetry and pair-fed group; conditions: 5 mg/kg ip daily
Procedure: (§1) For acute studies, 6 DIO or lean mice were treated with a single dose of FSG67 (20 mg/kg, i.p.) approximately 3 hrs past lights-on. Animal weights and food consumption were measured 18 h after treatment. Following euthanization, the hypothalmuses were harvested to measure orexigenic and anorexigenic neuropeptide gene expression. In the chronic studies, DIO mice, 4-10 animals per group, were treated daily with FSG67 (5 mg/kg, i.p.) or with RMPI vehicle for the days indicated. Body weight and food intake were measured daily. In one study, a cohort of mice was pair-fed with amounts consumed by the FSG67-treated animals and mice were monitored with indirect calorimetry (Oxymax Equal Flow System®, Columbus Instruments, Columbus, Ohio). Measurements of VO2 (ml/kg/hr) and VCO2 (ml/kg/hr) were performed and recorded every 15 min. The respiratory exchange ratio (RER) was calculated by Oxymax software, version 5.9, and is defined as ratio of VCO2 to VO2 33. After completion of the treatment course, animals were euthanized by CO2 inhalation 4 hrs following the final dose of FSG67. Tissues were harvested immediately for RNA extraction; serum was collected and analyzed for glucose, cholesterol, and triglyceride measurements (Bioanalytics, Gaithersburg, Md.). Fresh liver tissue was snap frozen in liquid N2, sectioned, and stained with hematoxylin and Oil Red O to visualize triglyceride droplets.
In the second chronic treatment study, indirect calorimetry was utilized to study changes in metabolism during GPAT inhibition. DIO mice (8 per group) were treated with FSG67 (5 mg/kg, ip), or pair-fed to FSG67 treated animals. Indirect calorimetry was utilized to measure changes in oxygen consumption (VO2) and respiratory exchange ratio (RER) between pair-fed and treated animals. After 16 days of treatment, the FSG67 treated mice lost 9.5±0.6% of body mass, pair-fed lost 5.5±0.9%, while vehicle controls gained 3.5±1.3% (FIG. 12c). The weight loss in the FSG67 treated animals was significant compared to both vehicle controls and pair-fed animals (p<0.0001, 2-way ANOVA). […] RER was reduced in FSG67 treated mice (0.732±0.002) compared to pair-fed (0.782±0.006) (p<0.0001, 2-way ANOVA) (FIG. 12f) indicating increased use of fatty acids for fuel in the FSG67 treated animals. The combination of increased VO2 and reduced RER in the FSG67 treated animals are consistent with increased fatty acid oxidation and energy utilization which likely contribute to their reduced body mass compared to the pair-fed controls.

lean mice = assay: Intracerebroventricular FSG67 treatment of lean mice; conditions: for weight lost: within 24 h
Procedure: Chronic lateral cerebroventricle cannulas. For experiments requiring intracerebroventricular (i.c.v.) administration of compounds, mice were outfitted unilaterally with chronic indwelling cannulas aimed at the lateral cerebroventricle. After mice recovered from surgeries for one week, cannula placements were assessed by measuring food intake in response to i.c.v. neuropeptide Y (NPY, American Peptide Co., CA). Mice were given NPY (0.25 ηmol/2 μl injection) or sterile 0.9% saline vehicle via the i.c.v. cannula, and allowed 1-h access to grain-based pellets during the light phase. Mice that ate at least 0.5 g of food after NPY were used in the experiments. Eleven mice were given a 2 μL injection of RPMI-1640 without glucose (Cambrex, Md.) for vehicle control. Three days later, six mice received a 100 nmole dose of FSG67 in the vehicle while 5 mice received 320 nmoles of compound.
We administered FSG67 icy to determine whether GPAT inhibition acts centrally to reduce food intake. Lean mice were treated with FSG67 icy at doses 100 and 320 nmoles (approximately […] less than the 5 mg/kg single day systemic dose). Within 24 h, mice treated with 100 nmoles lost 0.75±0.4 g (p=0.016) while the 320 nmole group lost 1.8±0.3 g (p=0.0003); vehicle controls gained 0.43±0.1 g and 0.33±0.1 g respectively (FIG. 15a). The animal weight was regained within 48 h without a significant rebound (data not shown). […] Within 48 h, the animals began eating normally with slight hyperphagia in the 320 nmole group on days 3 and 4 (data not shown).

[1] = system: hypothalamic neuropeptide expression; assay: Real-time RT-PCR of hypothalamic neuropeptides in lean mice after single dose; conditions: single 20 mg/kg
Procedure: as §1
Real-time RT-PCR. Hypothalamus, liver, and WAT of DIO and lean mice were harvested and immediately frozen in liquid nitrogen. Total RNA was isolated and real-time quantitative RT-PCR was performed as previously described (13). Gene-specific primer pairs were designed using Primer3 software (http://www-genome.wi.mit.edu/cgi-bin/primer/primer3_www.cgi/). […]
Acute and chronic FSG67 treatment altered hypothalamic neuropeptide expression. Hypothalamic peptide expression was measured in the lean and DIO mice treated with a single dose of FSG67 (see FIG. 11) and in the chronically treated DIO mice (see FIG. 12) to further asses the mechanism responsible for reduced food intake. […]

`CCCCCCCCCS(=O)(=O)Nc1ccccc1C(=O)O` [Compound 15g, 2-(Nonylsulfonamido)benzoic acid] was tested, and the “average daily food consumption” value (DIO mice; 16 days) was 2.0 ± 0.1 g/day, the body mass lost (DIO mice; 16 days) was 9.5±0.6% and the “reduction of average daily food consumption vs vehicle” value (DIO mice; 16 days) was 33%. For the same compound, the “average RER” value (DIO mice; indirect calorimetry) was 0.732±0.002, the “average VO2, % of pre-treatment value” (DIO mice; indirect calorimetry) was 106.5±1.1% and the weight lost (lean mice; 100 nmoles icv) was 0.75 ± 0.4 g. For the same compound, the chow intake (lean mice; 320 nmole icv) was 2.5 ± 0.3 g, the weight lost (lean mice; 320 nmole icv) was 1.8 ± 0.3 g and the “mouse weight one day following treatment” value (lean mice; 100 and 320 nmole icv) was “significantly reduced”. The “significant reduction in food intake” value (lean mice; 100 vs 320 nmole icv, listed as FSG67) was “only occurred in the 320 nmole treatment group”, the “time to regain animal weight” value (lean mice; icv, without significant rebound) was no more than 48 h and the “hypothalamic NPY expression” value ([1]; compared to fasted mice) was “significantly reduced”. For the same compound, the “hypothalamic AGRP expression” value ([1]; compared to vehicle control and fasted mice, listed as FSG67, 20 mg/kg) was “substantially diminished” and the “hypothalamic POMC and CART expression” value ([1]; listed as FSG67, 20 mg/kg) was “not affected; also recorded: unaffected”.
